Data set [1] concerns the target T1, Nicotinamide N-methyltransferase (Homo sapiens, UniProt P40261).
T1 sequence (P40261 whole entry): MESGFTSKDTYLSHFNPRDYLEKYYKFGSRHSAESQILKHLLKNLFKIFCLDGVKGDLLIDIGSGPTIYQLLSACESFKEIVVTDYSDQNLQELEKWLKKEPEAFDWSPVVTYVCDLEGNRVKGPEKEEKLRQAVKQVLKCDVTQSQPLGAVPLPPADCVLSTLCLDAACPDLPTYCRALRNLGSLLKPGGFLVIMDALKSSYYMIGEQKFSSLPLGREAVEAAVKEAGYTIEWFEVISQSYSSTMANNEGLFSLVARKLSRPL

In data set [2] the target is T2, Nicotinamide N-methyltransferase (Mus musculus, UniProt O55239).
T2 sequence (O55239 whole entry): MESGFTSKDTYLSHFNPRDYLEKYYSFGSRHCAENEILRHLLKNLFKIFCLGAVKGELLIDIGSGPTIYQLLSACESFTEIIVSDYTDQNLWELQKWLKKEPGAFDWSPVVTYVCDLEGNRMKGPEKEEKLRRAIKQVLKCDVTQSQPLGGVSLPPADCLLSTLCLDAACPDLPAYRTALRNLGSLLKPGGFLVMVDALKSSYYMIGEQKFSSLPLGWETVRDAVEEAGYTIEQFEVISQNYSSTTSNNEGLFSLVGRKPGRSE
Nature of the data set: Inhibition of mouse NNMT at 30 uM preincubated for 30 mins followed by nicotinamide substrate and SAM addition measured after 60 mins by fluorescence assay.

For data set [3], the target named is T2, Nicotinamide N-methyltransferase. Put plainly: Inhibition of NNMT in mouse 3T3L1 cells assessed as reduction in MNA production after 24 hrs by LC-MS/MS analysis. The format is cell-based.
Data set [4] can be described thus: Metabolic stability in human liver microsomes assessed as parent compound remaining after 30 mins. The format is ADME, microsome. To be noted: read-out: Stability.
The nature of data set [5]: Metabolic stability in rat liver microsomes assessed as parent compound remaining after 30 mins. Format: ADME, microsome. To be noted: read-out: Stability.
Data set [6] can be described thus: Metabolic stability in mouse liver microsomes assessed as parent compound remaining after 30 mins. To be noted: read-out: Stability. Format: ADME, microsome.
Data set [7] is described as follows: Solubility of the compound. The format is physicochemical.
Another data set addresses Cytochrome P450 3A4 (Homo sapiens, UniProt P08684). Put plainly: Inhibition of CYP3A4 (unknown origin). The format is ADME.
The target in another data set is Cytochrome P450 2D6 (Homo sapiens, UniProt P10635). Nature of the data set: Inhibition of CYP2D6 (unknown origin). The format is ADME.
Sequence of Cytochrome P450 2D6 (P10635 whole entry): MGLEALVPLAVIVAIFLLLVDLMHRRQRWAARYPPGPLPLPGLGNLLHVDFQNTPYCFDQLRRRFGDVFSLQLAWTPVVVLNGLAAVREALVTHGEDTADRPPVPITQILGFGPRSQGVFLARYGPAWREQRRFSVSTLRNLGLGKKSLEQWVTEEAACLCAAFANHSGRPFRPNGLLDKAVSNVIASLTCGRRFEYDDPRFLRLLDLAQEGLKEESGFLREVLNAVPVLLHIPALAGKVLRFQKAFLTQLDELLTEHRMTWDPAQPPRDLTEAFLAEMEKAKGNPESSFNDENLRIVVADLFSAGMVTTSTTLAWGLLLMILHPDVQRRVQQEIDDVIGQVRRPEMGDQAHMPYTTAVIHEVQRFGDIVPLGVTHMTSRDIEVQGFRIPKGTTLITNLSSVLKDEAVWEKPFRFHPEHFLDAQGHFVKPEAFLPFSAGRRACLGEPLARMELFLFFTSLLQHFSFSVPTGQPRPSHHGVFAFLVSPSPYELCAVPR
A further data set deals with Cytochrome P450 2C9 (Homo sapiens, UniProt P11712). Put plainly: Inhibition of CYP2C9 (unknown origin). The format is ADME.
Sequence of Cytochrome P450 2C9 (P11712 whole entry): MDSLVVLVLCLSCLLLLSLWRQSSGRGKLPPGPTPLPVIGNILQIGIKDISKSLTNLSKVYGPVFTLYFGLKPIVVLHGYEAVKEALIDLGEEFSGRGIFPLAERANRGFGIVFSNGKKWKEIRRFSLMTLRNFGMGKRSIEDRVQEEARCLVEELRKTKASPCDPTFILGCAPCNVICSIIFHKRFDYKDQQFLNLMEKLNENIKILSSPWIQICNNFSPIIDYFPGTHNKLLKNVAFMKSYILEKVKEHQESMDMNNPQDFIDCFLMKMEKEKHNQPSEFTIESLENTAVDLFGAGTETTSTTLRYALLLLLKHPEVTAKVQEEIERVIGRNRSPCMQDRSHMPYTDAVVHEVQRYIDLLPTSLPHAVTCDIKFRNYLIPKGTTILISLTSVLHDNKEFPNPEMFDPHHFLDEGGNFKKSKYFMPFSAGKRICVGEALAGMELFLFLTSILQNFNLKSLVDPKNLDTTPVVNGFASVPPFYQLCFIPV
The target in another data set is Cytochrome P450 2C19 (Homo sapiens, UniProt P33261). Put plainly: Inhibition of CYP2C19 (unknown origin). Format: ADME.
Sequence of Cytochrome P450 2C19 (P33261 whole entry): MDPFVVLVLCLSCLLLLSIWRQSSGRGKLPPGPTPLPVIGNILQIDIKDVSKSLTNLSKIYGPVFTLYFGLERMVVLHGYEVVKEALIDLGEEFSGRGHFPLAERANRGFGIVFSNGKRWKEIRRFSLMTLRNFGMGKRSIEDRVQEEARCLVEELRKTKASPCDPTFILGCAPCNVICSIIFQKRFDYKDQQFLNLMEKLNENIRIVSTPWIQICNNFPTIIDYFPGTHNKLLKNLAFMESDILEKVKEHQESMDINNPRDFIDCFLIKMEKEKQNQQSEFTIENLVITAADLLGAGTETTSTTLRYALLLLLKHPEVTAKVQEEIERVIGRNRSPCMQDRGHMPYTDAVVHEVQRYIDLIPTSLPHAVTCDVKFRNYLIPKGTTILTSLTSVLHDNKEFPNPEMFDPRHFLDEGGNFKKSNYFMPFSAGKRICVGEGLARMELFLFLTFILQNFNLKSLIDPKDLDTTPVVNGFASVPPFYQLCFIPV
Data set [8] can be described thus: Cmax in C57Bl6/N mouse at 10 mg/kg, po. Format: ADME, organism-based. Also on record: dose 10 mg/kg, route oral. To be noted: in vivo.
The nature of data set [9]: Cmax in C57Bl6/N mouse at 1 mg/kg, iv. The format is ADME, organism-based. Also on record: dose 1 mg/kg, route intravenous. To be noted: in vivo.
Data set [10] can be described thus: AUC in C57Bl6/N mouse at 10 mg/kg, po. The format is ADME, organism-based. To be noted: in vivo.
The nature of data set [11]: AUC in C57Bl6/N mouse at 1 mg/kg, iv. Format: ADME, organism-based. To be noted: in vivo.
The nature of data set [12]: Half life in C57Bl6/N mouse at 10 mg/kg, po. Format: ADME, organism-based. To be noted: in vivo.
A short description of data set [13]: Half life in C57Bl6/N mouse at 1 mg/kg, iv. To be noted: in vivo. Format: ADME, organism-based.
Data set [14] in a line: Clearance in C57Bl6/N mouse at 10 mg/kg, po or 1 mg/kg, iv. The format is ADME, organism-based. To be noted: in vivo.
The nature of data set [15]: Volume of distribution in C57Bl6/N mouse at 10 mg/kg, po or 1 mg/kg, iv. The format is ADME, organism-based. To be noted: in vivo.
The nature of data set [16]: Oral bioavailability in C57Bl6/N mouse at 10 mg/kg. The format is ADME, organism-based. To be noted: in vivo.
In another data set the test system is Mus musculus. Put plainly: In vivo inhibition of NNMT in C57Bl6/N mouse assessed as reduction in plasma MNA level at 50 mg/kg, po measured after 2 hrs by LC-MS/MS analysis. The format is functional.

≈ marks a conversion by molar mass, not a printed value.

Sequence of Cytochrome P450 3A4 (P08684 whole entry): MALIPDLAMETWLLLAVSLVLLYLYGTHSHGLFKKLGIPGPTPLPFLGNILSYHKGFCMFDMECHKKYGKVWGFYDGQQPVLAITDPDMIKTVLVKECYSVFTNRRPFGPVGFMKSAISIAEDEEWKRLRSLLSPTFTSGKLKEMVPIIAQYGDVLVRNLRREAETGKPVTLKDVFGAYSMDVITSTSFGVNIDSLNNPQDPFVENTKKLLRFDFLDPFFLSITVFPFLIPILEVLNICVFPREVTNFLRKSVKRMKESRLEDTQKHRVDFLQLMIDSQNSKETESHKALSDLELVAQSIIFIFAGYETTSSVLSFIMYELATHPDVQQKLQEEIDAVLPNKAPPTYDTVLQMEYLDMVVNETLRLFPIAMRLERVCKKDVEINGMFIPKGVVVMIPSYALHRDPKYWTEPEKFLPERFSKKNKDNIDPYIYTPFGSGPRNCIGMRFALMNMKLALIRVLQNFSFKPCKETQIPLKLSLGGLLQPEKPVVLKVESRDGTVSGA

`CN(C)c1ccc(C(N)=O)cn1` had an IC50 in [1] of over 30 µM.

Turning to `Cn1cc(C(N)=O)ccc1=O`, in data set [1], the IC50 was over 30 µM.

`COc1ccc(NC(C)=O)cn1`: the IC50 in data set [1] is over 30 µM.

The compound `Cc1ccc(C(N)=O)cn1` came in with a 50% inhibitory concentration (IC50) in [1] of over 10 µM.

In turn, `COc1ccc(C(=N)N)cn1` displayed a concentration for half-maximal inhibition (IC50) in data set [1] of over 30 µM.

As for `COc1ccc(-c2nnn[nH]2)cn1`, the IC50 in data set [1] was over 30 µM.

Compound `COc1ccc(C(N)=O)cn1` registered a 50% inhibitory concentration (IC50) in data set [1] of 2.36 to 2.52 µM.

In data set [1], `[2H]C([2H])([2H])Oc1ccc(C(N)=O)cn1` came in with an IC50 of 0.922 to 1.61 µM.

Consider `CSc1ccc(C(N)=O)cn1`, for which the 50% inhibitory concentration (IC50) in data set [1] is over 30 µM.

In turn, `COc1cnc(C(N)=O)cn1` yielded an IC50 in data set [1] of over 30 µM.

In data set [1], `CCNC(=O)c1ccc(OC)nc1` showed a concentration for half-maximal inhibition (IC50) of over 30 µM.

`CCOc1cc(C)ncc1C(N)=O` came in with an IC50 in data set [1] of over 30 µM.

In [1], `NC(=O)c1ccc(C(F)(F)F)nc1` came in with an IC50 of over 30 µM.

In data set [1], `NC(=O)c1ccc(OC(F)F)nc1` came in with a 50% inhibitory concentration (IC50) of over 30 µM.

In turn, `CCOc1nc(C)ccc1C(N)=O` showed an IC50 in [1] of over 30 µM.

Consider `CCc1ccc(C(N)=O)cn1`, for which the IC50 in data set [1] is over 30 µM.

Turning to `COc1ccc(C(N)=O)cc1F`, in [1], the IC50 was over 30 µM.

As to `CNc1ccc(C(N)=O)cn1`, the half-inhibitory concentration (IC50) in data set [2] was 4.5 µM; in [3], 2.1 µM; against Cytochrome P450 3A4 it was over 20 µM; on Cytochrome P450 2D6, over 20 µM; on Cytochrome P450 2C9, over 20 µM; against Cytochrome P450 2C19, over 20 µM. In addition, the figures for the remaining at 0.5 h in data set [4], in [5] and in data set [6] were 85%, 97% and 69%, respectively. In data set [7], this compound came in with a solubility of 200 µM (≈ 30.2 µg/mL). For the same compound, the Cmax in [8] came to 1430 ng/mL; in [9], 587 ng/mL. The exposure (AUC) in data set [10] amounted to 1090 ng·h/mL; in data set [11], 511 ng·h/mL. Also, the figures for the half-life in data set [12] and in data set [13] were 1.2 h and 0.8 h, respectively. Moreover, the clearance in [14] worked out at 27.9 mL/min/kg. The compound further displayed a Vd in data set [15] of 1.85 L/kg. The compound further yielded a bioavailability in data set [16] of 19%. Also, the inhibition in vivo at 50 mg/kg in the data set with Mus musculus was found to be 80%.

Compound `COc1ccc(C(N)=O)cc1` had an IC50 in data set [1] of over 30 µM.

For the origin of these results see ChEMBL document CHEMBL4184280, “Novel nicotinamide analog as inhibitor of nicotinamide N-methyltransferase” (Bioorg Med Chem Lett, 2018).
